Values after ≈ are worked out from the molar mass of the structure shown. Values joined by “and” are separate entries in the source; they are usually repeats but may differ in a detail not shown here. Equal values may be shown once.
Key:
[1] = DNDI: Cytotoxicity against L929 mouse fibroblasts, 72 hour.; format: toxicity, cell-based; settings: mouse, L929 mouse fibroblasts
Trypanosoma brucei = assay: DNDI: Inhibition of Human African Trypanosomiasis, SBRI 427, in vitro; format: functional, organism-based
[2] = DNDI: Cytotoxicity against L929 mouse fibroblasts, CYTO-SP, 24 hour; format: toxicity, cell-based; settings: mouse, L929 mouse fibroblasts
[3] = Trypanosoma brucei, SBRI 427, read-out: IC50

Compound | IC50 (Trypanosoma brucei; [3]) [µg/mL] | IC50 (Trypanosoma brucei) | IC50 at 72 h [1] [µg/mL] | IC50 at 24 h [2] [µg/mL]
CN(C)CCCNc1cc(-c2ccccc2)nc2cc(-c3cccc(F)c3)nn12 | 1.13 (≈ 2.9 µM) | – | 2.28 (≈ 5.85 µM) | –
Cc1cc2[nH]c(-c3ccccc3)cc(=O)n2n1 | > 5 | – | > 10 | –
N#Cc1cccnc1Oc1ccccc1 | > 5 | – | – | > 50
CC(C)(C)OC(=O)N1CCC(Nc2cc(-c3ccccc3)nc3cc(-c4ccc(F)cc4)nn23)CC1 | > 5 | – | > 10 | –
N#Cc1cccnc1Oc1ccccc1Br | > 5 | – | – | > 50
COc1cc(C)ccc1Oc1nc(C)ccc1/C(=N/O)NCC1CC1 | – | – | – | > 50
Cc1ccc(/C(=N/O)NCC(C)(C)C)c(Oc2ccc3ccccc3c2)n1 | – | – | – | 34 (≈ 93.5 µM)
CC1CCC(N/C(=N\O)c2cccnc2Oc2ccc(F)cc2Cl)CC1 (stereo unspecified) | – | – | – | 28 (≈ 74.1 µM)
CCC(CC)N/C(=N\O)c1ccc(C)nc1Oc1ccc(C)cc1OC | – | – | – | > 50
COc1ccc(/C=N/Oc2ccccc2)cc1 | > 5 | – | – | > 50
C(=N\OCc1ccccc1)/c1ccccc1-c1ccccc1 | > 5 | – | – | > 50
COc1ccccc1Oc1ncccc1/C(=N/O)NC1CCCC1 | – | – | – | > 50
Cc1cc(NCC(C)(C)CN(C)C)n2nc(-c3cccc(F)c3)cc2n1 | > 5 | – | 9.64 (≈ 27.1 µM) | –
CCOc1ccccc1CN/C(=N\O)c1cccnc1Oc1ccccc1SC | – | – | – | > 50
O=C1CCCN1CCCNc1cc(-c2ccccc2)nc2cc(-c3cccc(F)c3)nn12 | > 5 | – | > 10 | –
N#Cc1cccnc1Oc1ccc2ccccc2c1 | > 5 | – | – | > 50
COc1cc(C)ccc1Oc1nc(C)ccc1/C(=N/O)NCc1cc(C)cc(C)c1 | 1.1 (≈ 2.71 µM) | – | – | > 50
C=CCO/N=C/c1ccc(OC)cc1 | > 5 | – | – | > 50
CC(C)(C)COc1ncccc1/C(=N/O)N1CCCc2ccccc21 | – | – | – | 26 (≈ 76.6 µM)
COc1ccccc1Oc1ncccc1C(=O)NC1CCCCC1 | > 5 | – | – | > 50
Cc1cc(NCCN2CCCCC2)n2nc(-c3cccc(F)c3)cc2n1 | > 5 | – | > 10 | –
N/C(=N/O)c1cccnc1Oc1ccccc1 | > 5 | – | – | > 50
Cc1ccc(/C(=N/O)NCC(C)(C)C)c(Oc2cc(Cl)ccc2Cl)n1 | – | – | – | 27 (≈ 70.6 µM)
CCc1ccccc1Oc1ncccc1C#N | > 5 | – | – | > 50

Compound | IC50 (Trypanosoma brucei; [3]) [µg/mL] | IC50 (Trypanosoma brucei) | IC50 at 72 h [1] [µg/mL] | IC50 at 24 h [2] [µg/mL]
O=c1cc(-c2ccccc2)[nH]c2cc(-c3cccc(F)c3)nn12 | > 5 | – | 4.88 (≈ 16 µM) | –
Brc1nn2ccnc2s1 | > 5 | – | > 10 | –
O/N=C(\NC1CCCCC1)c1ccc(Oc2ccc(Cl)cc2)nc1 | 1.2 (≈ 3.47 µM) | – | – | 30.8 (≈ 89.1 µM)
CO/N=C/c1ccccc1-c1ccccc1 | > 5 | – | – | > 50
CC1CCC(N/C(=N\O)c2cccnc2Oc2ccc(-n3cncn3)cc2)CC1 (stereo unspecified) | – | – | – | > 50
CC(C)(C)CN/C(=N\O)c1ccc(Oc2cc(Cl)ccc2Cl)nc1 | 0.9 (≈ 2.44 µM) | – | – | > 50
Cc1cc(N)nn1Cc1coc(-c2ccc(OC(F)(F)F)cc2)n1 | 1.18 (≈ 3.49 µM) | – | – | > 50
CCCCNCc1coc(-c2ccc(C(C)(C)C)cc2)n1 | – | 1.84 µg/mL and 0.87 µg/mL | – | 28.1 (≈ 98.1 µM)
CN1CCCC1CCNCc1coc(-c2ccc(Br)cc2)n1 (stereo unspecified) | – | 1.22 µg/mL and 0.45 µg/mL | – | 25.1 (≈ 68.9 µM)
COc1cc(C)ccc1Oc1nc(C)ccc1/C(=N/O)NCC(C)C | – | – | – | > 50
CSc1ccccc1Oc1ncccc1/C(N)=N\O | > 5 | – | – | > 5
Cc1ccc(Oc2ccc(/C(=N/O)NCC3CC3)cn2)c(C)c1 | – | – | – | > 50
Fc1cccc(-c2cc3nc(-c4ccccc4)cc(NCCN4CCCC4)n3n2)c1 | 2.22 (≈ 5.53 µM) | – | 1.54 (≈ 3.84 µM) | –
CN(C)CC(C)(C)CNc1cc(-c2ccccc2)nc2cc(-c3ccc(F)cc3)nn12 | > 5 | – | > 10 | –
Cc1ccc(/C(=N/O)NC2CCC(C)CC2)c(OCc2ccccn2)n1 (stereo unspecified) | – | – | – | > 50
O=C(NC1CCCCC1)c1cccnc1Oc1ccccc1Cl | > 5 | – | – | > 50
N/C(=N/O)c1cccnc1Oc1ccccc1Br | > 5 | – | – | > 50
Cc1cc(Oc2ccc(/C(=N/O)NCC3CC3)cn2)cc(C(C)C)c1 | – | – | – | 27 (≈ 79.5 µM)
CCC(CC)N/C(=N\O)c1ccc(C)nc1Oc1ccc(SC)cc1 | 1.08 (≈ 3 µM) | – | – | > 50
COc1cc(C)ccc1Oc1ncccc1/C(N)=N/O | > 5 | – | – | > 5
COc1ccc(/C(Cc2ccccc2)=N/O)cc1 | > 5 | – | – | > 50
Cc1cc(NC2CCN(C(=O)OC(C)(C)C)C2)n2nc(-c3cccc(F)c3)cc2n1 (stereo unspecified) | > 5 | – | > 10 | –
COc1ccc(/C=N/OCC(C)C)cc1 | > 5 | – | – | > 50

More lines, main results first:

IC50 (Trypanosoma brucei; [3]) [µg/mL] | IC50 (Trypanosoma brucei) | Compound | IC50 at 72 h [1] [µg/mL] | IC50 at 24 h [2] [µg/mL]
> 5 | – | Fc1ccccc1Oc1ncccc1CNC1CCCCC1 | – | > 50
> 5 | – | CCN(CC)CCCNc1cc(C)nc2cc(-c3cccc(F)c3)nn12 | > 10 | –
> 5 | – | Fc1ccc(Oc2nc(Cl)nc3ccsc23)cc1 | > 10 | –
– | 0.93 µg/mL and 2.49 µg/mL | Cc1ccc(-c2nc(CNC[C@@H]3CC[C@H]4C[C@@H]3C4(C)C)co2)cc1 | – | 28.4 (≈ 87.5 µM)
> 5 | – | CCc1ccccc1Oc1ncccc1/C(N)=N\O | – | > 5
1.08 (≈ 2.95 µM) | – | O/N=C(\NC1CCCC1)c1ccc(Oc2cc(Cl)ccc2Cl)nc1 | – | 28.8 (≈ 78.6 µM)
> 5 | – | CSc1ccccc1Oc1ncccc1C#N | – | > 50
1.02 (≈ 2.47 µM) | – | COc1cc(C)ccc1Oc1nc(C)ccc1/C(=N/O)NCc1cc(F)cc(F)c1 | – | > 50
> 5 | – | N/C(=N/O)c1cccnc1Oc1ccc2ccccc2c1 | – | > 50
> 5 | – | CC(C)(C)OC(=O)N1CCN(c2cc(-c3ccccc3)nc3cc(-c4ccc(F)cc4)nn23)CC1 | > 10 | –
> 5 | – | CCO/N=C/c1ccccc1-c1ccccc1 | – | > 50
4.3 (≈ 10.4 µM) | – | Fc1cccc(-c2cc3nc(-c4ccccc4)cc(NCCCn4ccnc4)n3n2)c1 | 5.91 (≈ 14.3 µM) | –
> 5 | – | N/C(=N/O)c1cccnc1Oc1cccc2ccccc12 | – | > 50
> 5 | – | Cc1cc(NCCN2CCCC2)n2nc(-c3cccc(F)c3)cc2n1 | > 10 | –
> 5 | – | CO/N=C/c1ccc(OC)cc1 | – | > 50
> 5 | – | Cc1cc(NCCN2CCOCC2)n2nc(-c3cccc(F)c3)cc2n1 | > 10 | –
> 5 | – | Cc1cc(NCCCN(C)C)n2nc(-c3cccc(F)c3)cc2n1 | > 10 | –
> 5 | – | C[N+]1(C)CCN(c2cc(-c3ccccc3)nc3cc(-c4ccc(F)cc4)nn23)CC1 | > 10 | –
> 5 | – | Cc1cc(NCCCN2CCCC2)n2nc(-c3cccc(F)c3)cc2n1 | > 10 | –
– | 0.62 µg/mL and 1.33 µg/mL | Clc1ccc(-c2nc(CNCCCN3CCCC3)co2)c(Cl)c1 | – | 33.6 (≈ 94.8 µM)
> 5 | – | Clc1nc(Oc2cccc3ccccc23)c2sccc2n1 | 2.52 (≈ 8.06 µM) | –
> 5 | – | N#Cc1cccnc1Oc1cccc2ccccc12 | – | > 50
> 5 | – | COc1ccc(C(=O)Cc2ccccc2)cc1 | – | > 50
1.08 (≈ 2.87 µM) | – | Cc1ccc2cccc(Oc3ccc(/C(=N/O)NC4CCCCC4)cn3)c2n1 | – | > 50

IC50 (Trypanosoma brucei; [3]) [µg/mL] | IC50 (Trypanosoma brucei) | Compound | IC50 at 72 h [1] [µg/mL] | IC50 at 24 h [2] [µg/mL]
1.05 (≈ 2.51 µM) | – | CCN(CC)CCCNc1cc(-c2ccccc2)nc2cc(-c3cccc(F)c3)nn12 | 2.51 (≈ 6.01 µM) | –
2.07 (≈ 5.51 µM) | – | CN(C)CCNc1cc(-c2ccccc2)nc2cc(-c3cccc(F)c3)nn12 | 1.78 (≈ 4.74 µM) | –
> 5 | – | O=C(NC1CCCCC1)c1cccnc1Oc1ccccc1 | – | > 50
> 5 | – | Cc1cc(NCCCN2CCCC2=O)n2nc(-c3cccc(F)c3)cc2n1 | > 10 | –
> 5 | – | CC(C)(C)c1cc(=O)n2nc(-c3ccc(F)cc3)cc2[nH]1 | > 10 | –
> 5 | – | CC(C)(C)OC(=O)N1CCN(c2cc(C(C)(C)C)nc3cc(-c4ccc(F)cc4)nn23)CC1 | > 10 | –
– | 0.78 µg/mL and 0.28 µg/mL | Cc1ccc(Oc2nc(C)ccc2/C(=N/O)NC2CCCCC2)c(C)c1 | – | 34 (≈ 96.2 µM)
> 5 | – | N#Cc1cccnc1Oc1ccccc1F | – | > 50
> 5 | – | CCO/N=C/c1ccc(OC)cc1 | – | > 50
> 5 | – | Fc1cccc(-c2cc3nc(-c4ccccc4)cc(NCCN4CCOCC4)n3n2)c1 | > 10 | –
> 5 | – | O=C(NC1CCCCC1)c1cccnc1Cl | – | > 50
> 5 | – | COc1ccccc1Oc1ncccc1C#N | – | > 50
> 5 | – | COc1ccc(/C=N/OCc2ccccc2)cc1 | – | > 50
> 5 | – | Cc1cc(N2CCN(C(=O)OC(C)(C)C)CC2)n2nc(-c3cccc(F)c3)cc2n1 | > 10 | –
> 5 | – | CC(C)CO/N=C/c1ccccc1-c1ccccc1 | – | > 50
> 5 | – | COc1ccc(-c2cc3[nH]c(-c4ccccc4)cc(=O)n3n2)cc1 | > 10 | –
> 5 | – | CC(C)(C)OC(=O)N1CCC(Nc2cc(-c3ccccc3)nc3cc(-c4ccc(F)cc4)nn23)C1 (stereo unspecified) | > 10 | –
> 5 | – | C=CCO/N=C/c1ccccc1-c1ccccc1 | – | > 50
1.07 (≈ 2.92 µM) | 0.54 µg/mL (≈ 1.47 µM) | CC1CC(NCc2coc(-c3ccc(C(F)(F)F)cc3)n2)CC(C)(C)C1 (stereo unspecified) | – | > 50
– | 2.68 µg/mL and 1.13 µg/mL | CC1CCCCN1CCCNCc1coc(-c2ccc(Cl)cc2Cl)n1 (stereo unspecified) | – | 42.2 (≈ 110 µM)
3.82 (≈ 9.19 µM) | – | Fc1cccc(-c2cc3nc(-c4ccccc4)cc(NCCN4CCCCC4)n3n2)c1 | 9.91 (≈ 23.8 µM) | –
> 5 | – | Cc1cc(=O)n2nc(-c3cccc(F)c3)cc2[nH]1 | > 10 | –
0.09 (≈ 0.252 µM) | – | COc1cc(C)ccc1Oc1nc(C)ccc1/C(=N/O)NCC(C)(C)C | – | < 50
